Test results reported in US10364263B2, “Cyclic phosphates and cyclic phosphoramidates for the treatment of neurologic disorders” (Retrophin, Inc., priority 2015, dated 2019).

system: PANK2 silenced human neuroblastoma IMR32 cells (PANK2−/−); assay: Coenzyme A assay in PANK2 silenced cells (LC-MS quantification of free CoA); format: cell-based; details: compound added twice (24 h + 24 h), relative to 0.1% DMSO controls
Description: A human neuroblastoma IMR32 cell line (ATCC) with stably PANK2 silencing was obtained by lentiviral-delivered small hairpin RNA and cultured in MEM (Invitrogen) supplemented with 10% fetal bovine serum, 2 mM glutamine, 1% penicillin-streptomycin, 1 mM sodium pyruvate, 1 mM non essential amino acids and 1.5 g/l sodium bicarbonate.
For lentiviral shRNA expression, Human Emryonic Kidney HEK-293T cells (ATCC) were transfected with the appropriate pGFP-Lenti-shRNA constructs and packaging plasmids according to manufacturer's protocol (Origene Technologies, Inc.). Four different gene-specific shRNA expression vectors designed against multiple splice variants of PANK2 (Gene ID 80025) were used for transfection. A non-silencing shRNA construct (scrambled shRNA) and an empty vector expressing GFP alone were used as negative controls. The GFP tag subcloned into the lentiviral vectors was used to monitor the transfection efficiency.
IMR32 cells were plated on 150 cm dishes 48 h before transduction with lentiviral particles.
Three days after transduction medium was removed and replaced with fresh medium containing […] puromycin. Medium was replaced every 48 h. Levels of PANK2 expression on selected clones was assessed by Western Blot analysis.
To quantify CoA, PANK2^−/− IMR32 cells were plated on 12-well culture plates (Corning) at a density of 0.2×10^6 cells per well. After 72 h, compounds were freshly dissolved in DMSO and added to the culture medium to yield a final solvent concentration of 0.1% (v/v). Controls with medium containing 0.1% DMSO without test compounds were also included in each plate. Compound treated cells were incubated for 24 h at 37° C. Treatment was repeated after 24 h with newly dissolved compound and cells were further incubated at 37° C. for additional 24 h. Before LC-MS analysis of CoA levels, cells were harvested, counted, and collected in a 15 ml falcon tube and centrifuged at 200×g for 5 min at 4° C. Supernatant was removed and cell pellet was washed in 10 ml of ice-cold PBS. To further confirm that the numbers of cells in each sample were equivalent, an equal fraction of pellet was collected from each sample and subjected to protein determination analysis. After centrifugation and supernatant removal, the cell pellet was rapidly frozen in Liquid Nitrogen and stored at −80° C. until analysis.
Intracellular CoA levels were calculated considering an intracellular volume of 1 million cells=2 μl.
The 1×10^6 cellular pellet was extracted with 120 μl of aqueous 20% TFA. This solution was stirred for 2 min, sonicated in ultrasonic bath for 2 min, then stirred again for 1 min, and centrifuged for 15 min at 14000 g and at 4° C.
100 μL samples of supernatant were dried under N2 at 20° C. in the dark.
Samples were re-dissolved in 100 μl of 10 mM NH4^+ AcO^− buffer pH 5.1+IS (Dextrorphan 50 ng/ml), stirred for 2 min, sonicated in ultrasonic bath for 1 min, then stirred again for 1 min, and injected into LC-MS.
LC-MS/MS was performed using an Agilent HPLC (1100 Series, USA). The LC system was interfaced with an API-4000 Q-Trap triple quadrupole mass spectrometer (AB Sciex, Toronto, Canada) equipped with a TurbolonSpray ionization source operating in positive ion mode. Analyst™ software version 1.6 (AB Sciex, Toronto, Canada) was used for data acquisition and processing. CoA was separated using a Luna C18 column (2.0×50 mm; 5 μm particle size), column at 25° C. and flow rate of 0.2 ml/min. Injection volume was 15 μl. The mobile phases consisted of water containing 10 mM ammonium acetate pH 7 (mobile phase A) and MeCN-2-propanol 9:1 (mobile phase B). Elution was performed using a gradient starting at 2% B, holding at 2% B until 0.1 min, increasing to 98% B at 3.2 min, holding at 98% B until 4.5 min, returning to 2% B at 4.6 min and holding at 2% B until 7.5 min. Precursor ions and MRM transitions used were: CoA m/z 768.1→261.6 and 768.1→136.1. […]

Row | SMILES | PANK2−/− CoA (Fold Increase): fold increase in Coenzyme A (CoA) levels relative to controls
1 | COC(=O)CCNC(=O)[C@@H]1OP(=O)(OCOC(=O)N[C@@H](CSC(=O)C(C)(C)C)C(=O)OC)OCC1(C)C (stereo partly drawn) [2-148, methyl N-(((((4R)-4-((3-methoxy-3-oxopropyl)carbamoyl)-5,5-dimethyl-2-oxido-1,3,2-dioxaphosphinan-2-yl)oxy)methoxy)carbonyl)-S-pivaloyl-L-cysteinate] | 4.19 Fold Increase
2 | COC(=O)CCNC(=O)[C@@H]1O[P@](=O)(N[C@@H](C)C(=O)OC)OCC1(C)C [1-53, methyl 3-((2S,4R)-2-(((S)-1-methoxy-1-oxopropan-2-yl)amino)-5,5-dimethyl-2-oxido-1,3,2-dioxaphosphinane-4-carboxamido)propanoate] | 2.37 Fold Increase
3 | COC(=O)CCNC(=O)[C@@H]1O[P@@](=O)(OCOC(=O)C2(C(N)=O)CC2)OCC1(C)C [2-131, (((2S,4R)-4-((3-methoxy-3-oxopropyl)carbamoyl)-5,5-dimethy)-2-oxido-1,3,2-dioxaphosphinan-2-yl)oxy)methyl 1-carbamoylcyclopropane-1-carboxylate] | 1.44 Fold Increase
4 | COC(=O)CCNC(=O)[C@@H]1O[P@](=O)(OCOC(=O)N[C@@H](CSC(=O)C(C)(C)C)C(=O)O)OCC1(C)C [2-201, N-(((((2R,4R)-4-((3-methoxy-3-oxopropyl)carbamoyl)-5,5-dimethyl-2-oxido-1,3,2-dioxaphosphinan-2-yl)oxy)methoxy)carbonyl)-S-pivaloyl-L-cysteine] | 0.92 Fold Increase
5 | COC(=O)CCNC(=O)[C@@H]1O[P@](=O)(OCOC(=O)c2ccnn2C)OCC1(C)C [2-185, (((2R,4R)-4-((3-methoxy-3-oxopropyl)carbamoyl)-5,5-dimethyl-2-oxido-1,3,2-dioxaphosphinan-2-yl)oxy)methyl 1-methyl-1H-pyrazole-5-carboxylate] | 114.15 Fold Increase
6 | CC(C)(C)OC(=O)CCNC(=O)[C@@H]1O[P@](=O)(OCc2ccccc2)OCC1(C)C [Compound No. 63, tert-butyl 3-((4R)-2-(benzyloxy)-5,5-dimethyl-2-oxido-1,3,2-dioxaphosphinane-4-carboxamido)propanoate] | 2.24 Fold Increase
7 | COC(=O)CCNC(=O)[C@@H]1O[P@@](=O)(N[C@@H](C)C(=O)OC)OCC1(C)C [1-52, methyl 3-((2R,4R)-2-(((S)-1-methoxy-1-oxopropan-2-yl)amino)-5,5-dimethyl-2-oxido-3,3,2-dioxaphosphinane-4-carboxamido)propanoate] | 2.09 Fold Increase
8 | COC(=O)CCNC(=O)[C@@H]1OP(=O)(OCOC(=O)c2scnc2C(C)(C)C)OCC1(C)C (stereo partly drawn) [2-173, (((4R)-4-((3-methoxy-3-oxopropyl)carbamoyl)-5,5-dimethyl-2-oxido-1,3,2-dioxaphosphinan-2-yl)oxy)methyl 4-(tert-butyl)thiazole-5-carboxylate] | 2.57 Fold Increase
9 | COC(=O)CCNC(=O)[C@@H]1OP(=O)(OCOC(=O)N[C@@H](CSC(=O)C(C)(C)C)C(=O)OCC(=O)c2ccccc2)OCC1(C)C (stereo partly drawn) [2-202, 2-oxo-2-phenylethyl N-(((((4R)-4-((3-methoxy-3-oxopropyl)carbamoyl)-5,5-dimethyl-2-oxido-1,3,2-dioxaphosphinan-2-yl)oxy)methoxy)carbonyl)-S-pivaloyl-L-cysteinate] | 2.62 Fold Increase
10 | COC(=O)CCNC(=O)[C@@H]1O[P@@](=O)(OC(C)OC(=O)C(C)C)OCC1(C)C (stereo partly drawn) [compound 106, 1-(((2S,4R)-4-((3-methoxy-3-oxopropyl)carbamoyl)-5,5-dimethyl-2-oxido-1,3,2-dioxaphosphinan-2-yl)oxy)ethyl isobutyrate] | 2.66 Fold Increase
